Key:
[1] = system: Influenza A H1N1 (strain A/WS/33); experiment: Virucidal Suspension Test (In-Vitro Time-Kill method) based upon ASTM E1052-20
Procedure: (§1) The antiviral activities of Composition A and Composition B were evaluated by challenging them with two different viruses, Coronavirus (strain OC43, ZeptoMetrix Corp. #0810024CF) and Influenza A H1N1 (strain A/WS/33, ATCC #VR-1520). A Virucidal Suspension Test (In-Vitro Time-Kill method) based upon the ASTM E1052-20, “Standard Practice to Assess the Activity of Microbicides against Viruses in Suspension” was used. The percent and log10 reductions from the initial populations of the viral strains were determined following exposure to Compositions A and B at two different exposure times (2 minutes and 10 minutes).

[2] = system: Coronavirus (strain OC43); experiment: as above
Procedure: as §1

Substance	Log10 reduction ([1]; 10 µg/mL, 2 min exposure) [log10]	Percent reduction ([1]; 10 µg/mL, 2 min exposure) [%]	Log10 reduction ([1]; 10 µg/mL, 10 min exposure) [log10]	Percent reduction ([1]; 10 µg/mL, 10 min exposure) [%]	Log10 reduction ([1]; 100 µg/mL, 2 min exposure) [log10]	Percent reduction ([1]; 100 µg/mL, 2 min exposure) [%]	Log10 reduction ([1]; 100 µg/mL, 10 min exposure) [log10]	Percent reduction ([1]; 100 µg/mL, 10 min exposure) [%]	Log10 reduction ([1]; 1000 µg/mL, 2 min exposure) [log10]	Percent reduction ([1]; 1000 µg/mL, 2 min exposure) [%]	Log10 reduction ([1]; 1000 µg/mL, 10 min exposure) [log10]	Percent reduction ([1]; 1000 µg/mL, 10 min exposure) [%]	Log10 reduction ([2]; 10 µg/mL, 2 min exposure) [log10]	Percent reduction ([2]; 10 µg/mL, 2 min exposure) [%]	Log10 reduction ([2]; 10 µg/mL, 10 min exposure) [log10]	Percent reduction ([2]; 10 µg/mL, 10 min exposure) [%]	Log10 reduction ([2]; 100 µg/mL, 2 min exposure) [log10]	Percent reduction ([2]; 100 µg/mL, 2 min exposure) [%]	Log10 reduction ([2]; 100 µg/mL, 10 min exposure) [log10]	Percent reduction ([2]; 100 µg/mL, 10 min exposure) [%]	also measured
Poly(L-lysine hydrochloride)-b-poly(D,L-leucine) [Composition A]	0.25	43.77	0.50	68.38	0.75	82.22	0.75	82.22	0.75	82.22	0.50	68.38	0.25	43.77	0.5	68.38	0.25	43.77	0.5	68.38	Log10 reduction ([2]; 1000 µg/mL, 2 min exposure): 0.5 log10; Percent reduction ([2]; 1000 µg/mL, 2 min exposure): 68.38%; Log10 reduction ([2]; 1000 µg/mL, 10 min exposure): 1 log10; Percent reduction ([2]; 1000 µg/mL, 10 min exposure): 90%
Poly(L-lysine hydrochloride)-b-poly(L-leucine) [Composition B]	0.75	82.22	0.75	82.22	0.50	68.38	0.50	68.38	0.00	0.00	1.00	90.00	0.25	43.77	1	90	0.75	82.22	0.75	82.22	Log10 reduction ([2]; 1000 µg/mL, 2 min exposure): 0.5 log10; Percent reduction ([2]; 1000 µg/mL, 2 min exposure): 68.38%; Log10 reduction ([2]; 1000 µg/mL, 10 min exposure): 0.75 log10; Percent reduction ([2]; 1000 µg/mL, 10 min exposure): 82.22%
